Assay results from US9586951B2 (FUJIFILM Corporation, priority 2013, dated 2017).

Legend:
[1] = system: human non-small cell lung cancer cell line NCI-H460; experiment: Cell proliferation inhibition test by sensitivity-enhancing to ionizing radiation (Cell Titer Glo); format: cell-based; conditions: Homo sapiens, NCI-H460, 120 h, concentration in which SER became 2; NCI-H460 cells, ionizing radiation 2 Gy, cultured 120 hour
Method in brief: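 Radiosensitisation measured as SER, a ratio of Cell Titer Glo luminescence in irradiated vs unirradiated plates relative to DMSO; SER2, the concentration yielding SER 2, came from sigmoidal regression. Compound (0.1% DMSO) was given 24 h post-seeding, 2 Gy applied 30 min later, then 120 hour culture at 37° C.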

[2] = biological target: T1, ATM (Homo sapiens, UniProt Q13315); experiment: ATM inhibition test (phosphorylation of Chk2 generated by ionizing radiation, AlphaScreen SureFire); format: cell-based; conditions: phosphorylated Chk2 in NCI-H460 cells, ionizing radiation 8Gy, 1 hour after test compound treatment; read-out: ATM inhibitory activity
T1 construct: detecting phosphorylation of Chk2 in a human non-small cell lung cancer cell line NCI-H460 (ATCC company); host or cells: NCI-H460 human non-small cell lung cancer cells
Method in brief: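 NCI-H460 cells treated with compound for 1 hour, then irradiated with 8Gy and incubated 1 hour at 37° C. Phospho-Chk2 measured by AlphaScreen SureFire. Inhibition ratio calculated relative to untreated irradiated and non-irradiated wells.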

T1 sequence (Q13315 whole entry): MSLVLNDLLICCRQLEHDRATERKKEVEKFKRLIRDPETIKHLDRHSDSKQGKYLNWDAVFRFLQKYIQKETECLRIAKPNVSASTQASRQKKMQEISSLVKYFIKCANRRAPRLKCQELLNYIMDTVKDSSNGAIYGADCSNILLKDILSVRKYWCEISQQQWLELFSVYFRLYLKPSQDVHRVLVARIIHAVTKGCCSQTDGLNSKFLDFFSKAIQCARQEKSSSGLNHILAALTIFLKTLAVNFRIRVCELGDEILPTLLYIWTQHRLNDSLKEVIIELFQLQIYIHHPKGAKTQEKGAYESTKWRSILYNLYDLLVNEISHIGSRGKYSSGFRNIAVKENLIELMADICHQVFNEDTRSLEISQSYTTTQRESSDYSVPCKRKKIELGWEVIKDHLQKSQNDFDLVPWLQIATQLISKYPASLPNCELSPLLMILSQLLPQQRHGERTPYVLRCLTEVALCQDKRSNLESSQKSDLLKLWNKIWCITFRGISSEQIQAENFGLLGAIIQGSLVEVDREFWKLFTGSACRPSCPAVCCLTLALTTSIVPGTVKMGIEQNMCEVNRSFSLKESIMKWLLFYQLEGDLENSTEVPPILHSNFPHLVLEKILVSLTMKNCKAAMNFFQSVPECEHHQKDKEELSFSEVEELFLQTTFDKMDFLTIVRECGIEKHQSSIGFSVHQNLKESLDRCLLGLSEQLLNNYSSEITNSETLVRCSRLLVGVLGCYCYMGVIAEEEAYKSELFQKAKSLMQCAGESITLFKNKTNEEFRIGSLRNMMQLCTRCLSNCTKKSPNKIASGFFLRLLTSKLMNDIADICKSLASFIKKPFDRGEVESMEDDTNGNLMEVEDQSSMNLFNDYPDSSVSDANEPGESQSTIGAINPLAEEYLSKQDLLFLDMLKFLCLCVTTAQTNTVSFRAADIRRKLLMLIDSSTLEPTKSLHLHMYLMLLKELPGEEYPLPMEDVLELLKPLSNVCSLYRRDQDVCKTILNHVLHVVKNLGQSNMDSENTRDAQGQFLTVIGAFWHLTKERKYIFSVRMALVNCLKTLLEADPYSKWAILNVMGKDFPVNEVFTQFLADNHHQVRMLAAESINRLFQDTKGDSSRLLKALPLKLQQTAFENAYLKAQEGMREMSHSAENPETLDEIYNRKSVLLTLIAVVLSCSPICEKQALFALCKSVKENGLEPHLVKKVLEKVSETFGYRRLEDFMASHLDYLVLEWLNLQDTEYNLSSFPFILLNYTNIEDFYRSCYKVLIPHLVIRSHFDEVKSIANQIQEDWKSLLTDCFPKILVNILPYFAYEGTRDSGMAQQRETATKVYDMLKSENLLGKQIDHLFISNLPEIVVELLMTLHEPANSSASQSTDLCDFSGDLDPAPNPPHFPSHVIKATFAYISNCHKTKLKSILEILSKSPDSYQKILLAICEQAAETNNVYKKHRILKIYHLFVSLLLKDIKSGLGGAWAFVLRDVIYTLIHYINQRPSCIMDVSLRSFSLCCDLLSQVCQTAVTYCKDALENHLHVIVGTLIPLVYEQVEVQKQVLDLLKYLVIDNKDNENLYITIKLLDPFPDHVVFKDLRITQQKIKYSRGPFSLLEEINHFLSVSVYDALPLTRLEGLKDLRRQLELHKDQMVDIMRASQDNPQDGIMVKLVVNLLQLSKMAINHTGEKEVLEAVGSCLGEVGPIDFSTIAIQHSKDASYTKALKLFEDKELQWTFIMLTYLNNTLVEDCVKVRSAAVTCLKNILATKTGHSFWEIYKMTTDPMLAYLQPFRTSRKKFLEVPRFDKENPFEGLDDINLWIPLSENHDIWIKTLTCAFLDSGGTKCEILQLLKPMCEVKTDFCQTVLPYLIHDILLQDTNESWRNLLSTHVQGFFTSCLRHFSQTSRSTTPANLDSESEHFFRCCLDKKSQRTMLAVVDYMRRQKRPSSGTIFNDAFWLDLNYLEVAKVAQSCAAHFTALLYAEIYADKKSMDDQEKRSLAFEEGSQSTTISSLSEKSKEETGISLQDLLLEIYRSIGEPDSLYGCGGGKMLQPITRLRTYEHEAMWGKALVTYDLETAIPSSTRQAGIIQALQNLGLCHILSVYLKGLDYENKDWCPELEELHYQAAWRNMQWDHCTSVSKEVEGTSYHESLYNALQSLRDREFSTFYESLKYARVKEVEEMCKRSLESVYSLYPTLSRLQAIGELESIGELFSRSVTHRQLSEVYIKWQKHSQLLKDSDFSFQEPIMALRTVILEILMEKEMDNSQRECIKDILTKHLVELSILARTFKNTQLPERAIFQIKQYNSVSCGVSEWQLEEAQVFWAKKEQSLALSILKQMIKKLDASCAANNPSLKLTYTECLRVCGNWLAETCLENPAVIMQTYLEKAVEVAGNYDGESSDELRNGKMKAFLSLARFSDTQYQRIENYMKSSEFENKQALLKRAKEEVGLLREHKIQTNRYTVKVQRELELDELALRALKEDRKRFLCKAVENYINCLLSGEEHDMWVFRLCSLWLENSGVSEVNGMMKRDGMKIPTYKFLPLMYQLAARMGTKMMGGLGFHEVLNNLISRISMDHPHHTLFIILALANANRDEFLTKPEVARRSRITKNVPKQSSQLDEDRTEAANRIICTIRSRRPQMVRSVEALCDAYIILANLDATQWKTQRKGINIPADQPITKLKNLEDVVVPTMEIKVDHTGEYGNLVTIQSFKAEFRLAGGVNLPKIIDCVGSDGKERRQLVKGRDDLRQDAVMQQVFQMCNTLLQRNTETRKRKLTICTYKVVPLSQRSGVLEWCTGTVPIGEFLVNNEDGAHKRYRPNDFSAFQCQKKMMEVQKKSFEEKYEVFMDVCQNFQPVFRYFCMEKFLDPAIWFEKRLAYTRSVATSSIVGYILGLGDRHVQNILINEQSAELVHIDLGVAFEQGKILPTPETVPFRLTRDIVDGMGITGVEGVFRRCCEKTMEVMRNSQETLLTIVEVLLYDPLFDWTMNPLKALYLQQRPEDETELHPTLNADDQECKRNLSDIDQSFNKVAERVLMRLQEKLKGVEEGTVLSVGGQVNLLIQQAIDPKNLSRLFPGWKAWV

| IC50 [2] [µM] | Compound | SER2 (concentration at which the radiation sensitivity-enhancement ratio reaches 2) [1] [nM] |
| --- | --- | --- |
| < 0.1 | COc1ccc(CNc2ccc3c(c2)Cc2cccc(-c4cc(N5CCOCC5)cc(=O)[nH]4)c2O3)cn1 [Example 2-2-1, 6-(7-(((6-methoxypyridin-3-yl)methyl)amino)-9H-xanthen-4-yl)-4-morpholinopyridin-2(1H)-one] | 100 to 500 |
| < 0.1 | O=c1cc(N2CCOCC2)cc(-c2c(F)ccc3c2Oc2ccc(NCc4cc(C5CC5)ccn4)cc2C3)[nH]1 [Example 2-46-3, 6-(7-(((4-Cyclopropylpyridin-2-yl)methyl)amino)-3-fluoro-9H-xanthen-4-yl)-4-morpholinopyridin-2(1H)-one] | < 100 |
| < 0.1 | O=c1cc(N2CCOCC2)cc(-c2cccc3c2Sc2ccc(NC4CCCN(Cc5cccnc5)C4)cc2S3)[nH]1 (stereo not shown) [Example 1-24-2, 4-Morpholine-6-(7-((1-(pyridin-3-ylmethyl)piperidin-3-yl)amino)thianthren-1-yl)pyridin-2 (1H)-one] | 100 to 500 |
| < 0.1 | [2H]C([2H])([2H])C(Nc1ccc2c(c1)Sc1cccc(-c3cc(N4CCOCC4)cc(=O)[nH]3)c1S2)c1cccc(F)n1 (stereo not shown) [Example 1-12-134, 4-Morpholino-6-(7-((2,2,2-trideutero-1-(6-fluoropyridin-2-yl)ethyl)amino)thianthren-1-yl) pyridin-2(1H)-one] | 100 to 500 |
| < 0.1 | O=c1cc(N2CCOCC2)cc(-c2cccc3c2Oc2ccc(NCc4cncc(C5C=CCC5)c4)cc2C3)[nH]1 (stereo not shown) [Example 2-2-60, 6-(7-(((5-(Cyclopent-2-en-1-yl)pyridin-3-yl)methyl)amino)-9H-xanthen-4-yl)-4-morpholino pyridin-2(1H)-one] | 500 to 2000 |

Second part, the compound before the results:

| Compound | IC50 [2] [µM] | SER2 (concentration at which the radiation sensitivity-enhancement ratio reaches 2) [1] [nM] |
| --- | --- | --- |
| Cc1ccc(C(Nc2ccc3c(c2)Sc2cccc(-c4cc(N5CCOCC5)cc(=O)[nH]4)c2S3)C2CN(C)CCO2)nc1 (single isomer, unassigned) [Example 1-52-1, 6-(7-(((4-methylmorpholin-2-yl)(5-methylpyridin-2-yl)methyl)amino)thianthren-1-yl)-4-morpholinopyridin-2(1H)-one] | < 0.1 | < 100 |
| Cc1ccnc(C(C)Nc2ccc3c(c2)Sc2cccc(-c4cc(N5CCOCC5)cc(=O)[nH]4)c2S3)n1 (stereo not shown) [Example 1-12-69, 6-(7-((1-(4-Methylpyrimidin-2-yl)ethyl)amino)thianthren-1-yl)-4-morpholino pyridin-2(1H)-one] | < 0.1 | < 100 |
| COc1cncc(C(C)Nc2ccc3c(c2)Sc2cccc(-c4cc(N5CCOCC5)cc(=O)[nH]4)c2S3)c1 (single isomer, unassigned) [Example 1-12-145-1, 6-(7-((1-(5-methoxypyridin-3-yl)ethyl)amino)thianthren-1-yl)-4-morpholinopyridin-2(1H)-one] | < 0.1 | 100 to 500 |
| C[C@@H]1CN(CCNc2ccc3c(c2)Sc2cccc(-c4cc(N5CCOCC5)cc(=O)[nH]4)c2S3)C[C@H](C)O1 [Example 1-10-14, 6-(7-((2-((2S,6R)-2,6- Dimethylmorpholino)ethyl)amino)thianthren-1-yl)-4-morpholino pyridin-2(1H)-one] | < 0.1 | 100 to 500 |
| N#Cc1ccnc(CNc2ccc3c(c2)Cc2cccc(-c4cc(N5CCOCC5)cc(=O)[nH]4)c2O3)c1 [Example 2-14-11, 2-(((5-(4-Morpholino-6-oxo-1,6-dihydropyridin-2-yl)-9H-xanthen-2-yl)amino)methyl) isonicotinonitrile] | < 0.1 | 100 to 500 |
| Cc1ccc(CNc2ccc3c(c2)Sc2cccc(-c4cc(N5CCOCC5)cc(=O)[nH]4)c2S3)nc1 [Example 1-12-13, 6-(7-(((5-Methylpyridin-2-yl)methyl)amino)thianthren-1-yl)-4-morpholino pyridin-2 (1H)-one] | < 0.1 | 100 to 500 |
